*1 amine or outer side, *2 acyl side, *3 side chain or, on linkers, in order; H or OH if unused. Where a SMILES comes first, the peptide text is derived from it. Side-chain parts run from the residue outwards. [ ]: non-standard residue; d: D form. The star is where a group is joined. C20 diacid = O=C(O)CCCCCCCCCCCCCCCCCCC(=O)*; γGlu = O=C(O)[C@H](CCC(=O)[*:2])N[*:1]; X27 = O=C1CC(C(=O)*)(c2ccccc2)CN1; X40 = CC(C)(C(=O)*)n1cc(Cl)cn1; X83 = Cc1ccn(C(C)(C)C(=O)*)n1; X24 = O=C(C1(c2cccnc2)CCC1)*; AEEA = NCCOCCOCC(=O)O; Aib = CC(C)(N)C(=O)O; GABA = NCCCC(=O)O; βAla = NCCC(=O)O
Tests used:
[1] = molecular target: GLP-1 receptor (Homo sapiens, UniProt P43220); assay: HitHunter cAMP assay, GLP-1 receptor; format: cell-based; settings: CHO cells, cAMP; normalized to maximum signal from GLP-1 (high) and DMSO (low); read-out: Emax GLP-1R
[2] = molecular target: T1, GIP receptor (Homo sapiens, UniProt P48546); assay: HitHunter cAMP assay, GIP receptor; format: cell-based; settings: CHO cells, cAMP; normalized to maximum signal from GIP (high) and DMSO (low); read-out: Emax GIP-1R
T1 sequence (P48546 22-466): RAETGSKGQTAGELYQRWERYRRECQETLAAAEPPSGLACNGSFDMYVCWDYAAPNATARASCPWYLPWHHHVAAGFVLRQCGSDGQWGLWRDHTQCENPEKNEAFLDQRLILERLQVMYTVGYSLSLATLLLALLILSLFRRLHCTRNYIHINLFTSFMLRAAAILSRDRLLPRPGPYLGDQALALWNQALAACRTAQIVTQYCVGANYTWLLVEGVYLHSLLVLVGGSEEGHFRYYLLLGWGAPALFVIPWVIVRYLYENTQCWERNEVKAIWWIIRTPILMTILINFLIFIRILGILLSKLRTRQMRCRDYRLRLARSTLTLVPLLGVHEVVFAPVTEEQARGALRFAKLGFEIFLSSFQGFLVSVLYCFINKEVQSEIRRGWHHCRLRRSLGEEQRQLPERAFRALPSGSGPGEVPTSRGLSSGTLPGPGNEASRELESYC

Sequence of GLP-1 receptor (P43220 24-463): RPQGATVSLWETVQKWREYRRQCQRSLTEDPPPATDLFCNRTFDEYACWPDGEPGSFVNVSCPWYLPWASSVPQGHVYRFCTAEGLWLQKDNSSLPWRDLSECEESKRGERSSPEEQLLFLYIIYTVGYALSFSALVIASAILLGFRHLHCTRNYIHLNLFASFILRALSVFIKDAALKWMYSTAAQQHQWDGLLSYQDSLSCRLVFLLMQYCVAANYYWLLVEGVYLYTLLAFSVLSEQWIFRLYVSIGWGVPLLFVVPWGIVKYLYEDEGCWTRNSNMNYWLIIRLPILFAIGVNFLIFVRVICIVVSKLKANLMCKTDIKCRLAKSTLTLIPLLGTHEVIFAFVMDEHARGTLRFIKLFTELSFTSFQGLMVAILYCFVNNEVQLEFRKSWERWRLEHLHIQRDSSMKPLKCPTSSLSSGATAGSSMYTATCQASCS

| Structure (SMILES) | Emax [1] [%] | Emax [2] [%] |
| --- | --- | --- |
| CC[C@H](C)[C@H](NC(=O)[C@H](CC(C)C)NC(=O)[C@H](Cc1c[nH]c2ccccc12)NC(=O)[C@H](CCC(N)=O)NC(=O)[C@@H](NC(=O)[C@H](Cc1ccccc1)NC(=O)[C@H](C)NC(=O)[C@H](CCCCNC(=O)COCCOCCNC(=O)COCCOCCNC(=O)CC[C@H](NC(=O)CCCCCCCCCCCCCCCCCCC(=O)O)C(=O)O)NC(=O)[C@H](CCC(N)=O)NC(=O)[C@H](C)NC(=O)[C@@H](NC(=O)[C@H](CCCCN)NC(=O)[C@H](CC(=O)O)NC(=O)[C@H](CC(C)C)NC(=O)C(C)(C)NC(=O)[C@@H](NC(=O)[C@H](CO)NC(=O)[C@H](Cc1ccc(O)cc1)NC(=O)[C@H](CC(=O)O)NC(=O)[C@H](CO)NC(=O)[C@@H](NC(=O)[C@H](Cc1ccccc1)NC(=O)[C@@H](NC(=O)CNC(=O)[C@H](CCC(=O)O)NC(=O)CCCNC(=O)C(C)(C)n1cc(Cl)cn1)[C@@H](C)O)[C@@H](C)O)[C@@H](C)CC)[C@@H](C)CC)C(C)C)C(=O)N[C@@H](C)C(=O)NCC(=O)NCC(=O)N1CCC[C@H]1C(=O)N[C@@H](CO)C(=O)N[C@@H](CO)C(=O)NCC(=O)N[C@@H](C)C(=O)N1CCC[C@H]1C(=O)N1CCC[C@H]1C(=O)N1CCC[C@H]1C(=O)N[C@@H](CO)C(N)=O [Compound 248] ({X40-GABA}-EGTFTSDYSI[Aib]LDKIAQK([AEEA-AEEA-γGlu-C20 diacid])AFVQWLIAGGPSSGAPPPS-NH2; C-terminus assumed) | 90 | 104 |
| CC[C@H](C)[C@H](NC(=O)[C@H](CC(C)C)NC(=O)[C@H](Cc1c[nH]c2ccccc12)NC(=O)[C@H](CCC(N)=O)NC(=O)[C@@H](NC(=O)[C@H](Cc1ccccc1)NC(=O)[C@H](C)NC(=O)[C@H](CCCCNC(=O)COCCOCCNC(=O)COCCOCCNC(=O)CC[C@H](NC(=O)CCCCCCCCCCCCCCCCCCC(=O)O)C(=O)O)NC(=O)[C@H](CCC(N)=O)NC(=O)[C@H](C)NC(=O)[C@@H](NC(=O)[C@H](CCCCN)NC(=O)[C@H](CC(=O)O)NC(=O)[C@H](CC(C)C)NC(=O)C(C)(C)NC(=O)[C@@H](NC(=O)[C@H](CO)NC(=O)[C@H](Cc1ccc(O)cc1)NC(=O)[C@H](CC(=O)O)NC(=O)[C@H](CO)NC(=O)[C@@H](NC(=O)[C@H](Cc1ccccc1)NC(=O)[C@@H](NC(=O)CNC(=O)[C@H](CCC(=O)O)NC(=O)CCCNC(=O)C1(c2ccccc2)CNC(=O)C1)[C@@H](C)O)[C@@H](C)O)[C@@H](C)CC)[C@@H](C)CC)C(C)C)C(=O)N[C@@H](C)C(=O)NCC(=O)NCC(=O)N1CCC[C@H]1C(=O)N[C@@H](CO)C(=O)N[C@@H](CO)C(=O)NCC(=O)N[C@@H](C)C(=O)N1CCC[C@H]1C(=O)N1CCC[C@H]1C(=O)N1CCC[C@H]1C(=O)N[C@@H](CO)C(N)=O (stereo partly drawn) [Compound 249] ({X27-GABA}-EGTFTSDYSI[Aib]LDKIAQK([AEEA-AEEA-γGlu-C20 diacid])AFVQWLIAGGPSSGAPPPS-NH2; C-terminus assumed) | 97 | 104 |
| CC[C@H](C)[C@H](NC(=O)[C@H](CC(C)C)NC(=O)[C@H](Cc1c[nH]c2ccccc12)NC(=O)[C@H](CCC(N)=O)NC(=O)[C@@H](NC(=O)[C@H](Cc1ccccc1)NC(=O)[C@H](C)NC(=O)[C@H](CCCCNC(=O)COCCOCCNC(=O)COCCOCCNC(=O)CC[C@H](NC(=O)CCCCCCCCCCCCCCCCCCC(=O)O)C(=O)O)NC(=O)[C@H](CCC(N)=O)NC(=O)[C@H](C)NC(=O)[C@@H](NC(=O)[C@H](CCCCN)NC(=O)[C@H](CC(=O)O)NC(=O)[C@H](CC(C)C)NC(=O)C(C)(C)NC(=O)[C@@H](NC(=O)[C@H](CO)NC(=O)[C@H](Cc1ccc(O)cc1)NC(=O)[C@H](CC(=O)O)NC(=O)[C@H](CO)NC(=O)[C@@H](NC(=O)[C@H](Cc1ccccc1)NC(=O)[C@@H](NC(=O)CNC(=O)[C@H](CCC(=O)O)NC(=O)CCNC(=O)C1(c2ccccc2)CNC(=O)C1)[C@@H](C)O)[C@@H](C)O)[C@@H](C)CC)[C@@H](C)CC)C(C)C)C(=O)N[C@@H](C)C(=O)NCC(=O)NCC(=O)N1CCC[C@H]1C(=O)N[C@@H](CO)C(=O)N[C@@H](CO)C(=O)NCC(=O)N[C@@H](C)C(=O)N1CCC[C@H]1C(=O)N1CCC[C@H]1C(=O)N1CCC[C@H]1C(=O)N[C@@H](CO)C(N)=O (stereo partly drawn) [Compound 250] ({X27-βAla}-EGTFTSDYSI[Aib]LDKIAQK([AEEA-AEEA-γGlu-C20 diacid])AFVQWLIAGGPSSGAPPPS-NH2; C-terminus assumed) | 90 | 89 |
| CC[C@H](C)[C@H](NC(=O)[C@H](CC(C)C)NC(=O)[C@H](Cc1c[nH]c2ccccc12)NC(=O)[C@H](CCC(N)=O)NC(=O)[C@@H](NC(=O)[C@H](Cc1ccccc1)NC(=O)[C@H](C)NC(=O)[C@H](CCCCNC(=O)COCCOCCNC(=O)COCCOCCNC(=O)CC[C@H](NC(=O)CCCCCCCCCCCCCCCCCCC(=O)O)C(=O)O)NC(=O)[C@H](CCC(N)=O)NC(=O)[C@H](C)NC(=O)[C@@H](NC(=O)[C@H](CCCCN)NC(=O)[C@H](CC(=O)O)NC(=O)[C@H](CC(C)C)NC(=O)C(C)(C)NC(=O)[C@@H](NC(=O)[C@H](CO)NC(=O)[C@H](Cc1ccc(O)cc1)NC(=O)[C@H](CC(=O)O)NC(=O)[C@H](CO)NC(=O)[C@@H](NC(=O)[C@H](Cc1ccccc1)NC(=O)[C@@H](NC(=O)CNC(=O)[C@H](CCC(=O)O)NC(=O)CCCNC(=O)C1(c2cccnc2)CCC1)[C@@H](C)O)[C@@H](C)O)[C@@H](C)CC)[C@@H](C)CC)C(C)C)C(=O)N[C@@H](C)C(=O)NCC(=O)NCC(=O)N1CCC[C@H]1C(=O)N[C@@H](CO)C(=O)N[C@@H](CO)C(=O)NCC(=O)N[C@@H](C)C(=O)N1CCC[C@H]1C(=O)N1CCC[C@H]1C(=O)N1CCC[C@H]1C(=O)N[C@@H](CO)C(N)=O [Compound 251] ({X24-GABA}-EGTFTSDYSI[Aib]LDKIAQK([AEEA-AEEA-γGlu-C20 diacid])AFVQWLIAGGPSSGAPPPS-NH2; C-terminus assumed) | 91 | 92 |
| CC[C@H](C)[C@H](NC(=O)[C@H](CC(C)C)NC(=O)[C@H](Cc1c[nH]c2ccccc12)NC(=O)[C@H](CCC(N)=O)NC(=O)[C@@H](NC(=O)[C@H](Cc1ccccc1)NC(=O)[C@H](C)NC(=O)[C@H](CCCCNC(=O)COCCOCCNC(=O)COCCOCCNC(=O)CC[C@H](NC(=O)CCCCCCCCCCCCCCCCCCC(=O)O)C(=O)O)NC(=O)[C@H](CCC(N)=O)NC(=O)[C@H](C)NC(=O)[C@@H](NC(=O)[C@H](CCCCN)NC(=O)[C@H](CC(=O)O)NC(=O)[C@H](CC(C)C)NC(=O)C(C)(C)NC(=O)[C@@H](NC(=O)[C@H](CO)NC(=O)[C@H](Cc1ccc(O)cc1)NC(=O)[C@H](CC(=O)O)NC(=O)[C@H](CO)NC(=O)[C@@H](NC(=O)[C@H](Cc1ccccc1)NC(=O)[C@@H](NC(=O)CNC(=O)[C@H](CCC(=O)O)NC(=O)CCCNC(=O)C(C)(C)n1ccc(C)n1)[C@@H](C)O)[C@@H](C)O)[C@@H](C)CC)[C@@H](C)CC)C(C)C)C(=O)N[C@@H](C)C(=O)NCC(=O)NCC(=O)N1CCC[C@H]1C(=O)N[C@@H](CO)C(=O)N[C@@H](CO)C(=O)NCC(=O)N[C@@H](C)C(=O)N1CCC[C@H]1C(=O)N1CCC[C@H]1C(=O)N1CCC[C@H]1C(=O)N[C@@H](CO)C(N)=O [Compound 252] ({X83-GABA}-EGTFTSDYSI[Aib]LDKIAQK([AEEA-AEEA-γGlu-C20 diacid])AFVQWLIAGGPSSGAPPPS-NH2; C-terminus assumed) | 90 | 100 |
| CC[C@H](C)[C@H](NC(=O)[C@H](CC(C)C)NC(=O)[C@H](Cc1c[nH]c2ccccc12)NC(=O)[C@H](CCC(N)=O)NC(=O)[C@@H](NC(=O)[C@H](Cc1ccccc1)NC(=O)[C@H](C)NC(=O)[C@H](CCCCNC(=O)COCCOCCNC(=O)COCCOCCNC(=O)CC[C@H](NC(=O)CCCCCCCCCCCCCCCCCCC(=O)O)C(=O)O)NC(=O)[C@H](CCC(N)=O)NC(=O)[C@H](C)NC(=O)[C@@H](NC(=O)[C@H](CCCCN)NC(=O)[C@H](CC(=O)O)NC(=O)[C@H](CC(C)C)NC(=O)C(C)(C)NC(=O)[C@@H](NC(=O)[C@H](CO)NC(=O)[C@H](Cc1ccc(O)cc1)NC(=O)[C@H](CC(=O)O)NC(=O)[C@H](CO)NC(=O)[C@@H](NC(=O)[C@H](Cc1ccccc1)NC(=O)[C@@H](NC(=O)CNC(=O)[C@H](CCC(=O)O)NC(=O)CCNC(=O)C(C)(C)n1ccc(C)n1)[C@@H](C)O)[C@@H](C)O)[C@@H](C)CC)[C@@H](C)CC)C(C)C)C(=O)N[C@@H](C)C(=O)NCC(=O)NCC(=O)N1CCC[C@H]1C(=O)N[C@@H](CO)C(=O)N[C@@H](CO)C(=O)NCC(=O)N[C@@H](C)C(=O)N1CCC[C@H]1C(=O)N1CCC[C@H]1C(=O)N1CCC[C@H]1C(=O)N[C@@H](CO)C(N)=O [Compound 253] ({X83-βAla}-EGTFTSDYSI[Aib]LDKIAQK([AEEA-AEEA-γGlu-C20 diacid])AFVQWLIAGGPSSGAPPPS-NH2; C-terminus assumed) | 94 | 105 |
